Test results published in patent publication US11584800B2, “Method of treating cancer comprising administration of anti-HER2 antibody-drug conjugate” (DAIICHI SANKYO COMPANY, LIMITED, priority 2014, dated 2023).

Experiments:
[1] = Self-degradation of aminal structure of released drug derivative; format: physicochemical
[2] = tested on: Human gastric cancer line NCI-N87 cells; assay: Antitumor test (2), NCI-N87 subcutaneous transplant in nude mice; format: in vivo, nude mouse; details: 10 mg/kg intravenously on Day 7; FIG. 4
Procedure: Mouse: 5- to 6-week-old female nude mice (Charles River Laboratories Japan, Inc.) were acclimatized for 4 to 7 days under SPF conditions before use in the experiment. The mice were fed with sterilized solid feed (FR-2, Funabashi Farms Co., Ltd) and given sterilized tap water (prepared by the addition of 5 to 15 ppm sodium hypochlorite solution). Assay and calculation expression: In all studies, the major axis and minor axis of a tumor were measured twice a week by using an electronic digital caliper ([…] Corp.), and the tumor volume (mm^3) was calculated. The calculation expression is as shown below. […] Human gastric cancer line NCI-N87 cells purchased from ATCC (American Type Culture Collection) were suspended in physiological saline, and 1×10^7 cells were subcutaneously transplanted to the right side of the body of each female nude mouse (Day 0), and the mice were randomly grouped on Day 7. […] An untreated group was established as a control group.

[3] = tested on: Human breast cancer line JIMT-1 cells; assay: Antitumor test (3), JIMT-1 subcutaneous transplant in nude mice; format: in vivo, nude mouse; details: 10 mg/kg intravenously on Days 12 and 19; FIG. 5
Procedure: (§2) Assay and calculation expression: In all studies, the major axis and minor axis of a tumor were measured twice a week by using an electronic digital caliper (CD-15CX, Mitutoyo Corp.), and the tumor volume (mm^3) was calculated. The calculation expression is as shown below. Tumor volume(mm^3)=½×Major axis (mm)×[Minor axis (mm)]^2
(§3) All of the antibody-drug conjugates and the antibody were diluted with physiological saline (Otsuka Pharmaceutical Factory, Inc.) and used at a volume of 10 mL/kg for intravenous administration to the tail vein of each mouse.
Human breast cancer line JIMT-1 cells purchased from DSMZ (Deutsche Sammlung von Mikroorganismen und Zellkulturen GmbH) were suspended in physiological saline, and 3×10^6 cells were subcutaneously transplanted to the right side of the body of each female nude mouse (Day 0), and the mice were randomly grouped on Day 12. […] A physiological saline administration group was established as a control group.

[4] = tested on: Human pancreatic cancer line Capan-1 cells weakly expressing HER2; assay: Antitumor test (4), Capan-1 solid tumor in nude mice; format: in vivo, nude mouse; details: 10 mg/kg intravenously on Day 20; tumor with low HER2 expression; FIG. 6
Procedure: as §2, §3
Human pancreatic cancer line Capan-1 cells (ATCC) weakly expressing HER2 were suspended in physiological saline, and 4×10^7 cells were subcutaneously transplanted to the right side of the body of each female nude mouse to generate Capan-1 solid tumor. Thereafter, this solid tumor was maintained at several passages by transplantation to female nude mice and used in this test. […]

[5] = tested on: breast cancer ST225 tumor moderately expressing HER2; assay: Antitumor test (6), patient-derived breast cancer ST225 in nude mice; format: in vivo, nude mouse; details: 10 mg/kg intravenously on Day 0; HER2 score 2+; FIG. 8
Procedure: (§1) Assay and calculation expression: The major axis and minor axis of tumor were measured twice a week by using an electronic digital caliper, and the tumor volume (mm^3) was calculated. The calculation expression is as shown below.

[6] = tested on: breast cancer ST910 tumor low expressing HER2; assay: Antitumor test (7), patient-derived breast cancer ST910 in nude mice; format: in vivo, nude mouse; details: 10 mg/kg intravenously on Day 0; HER2 score 1+; FIG. 9
Procedure: as §1

[7] = tested on: colorectal cancer CTG-0401 tumor low or moderately expressing HER2; assay: Antitumor test (8), patient-derived colorectal cancer CTG-0401 in nude mice; format: in vivo, nude mouse; details: 10 mg/kg intravenously on Day 0; HER2 score 1+ or 2+; FIG. 10
Procedure: as §1

[8] = tested on: non-small cell lung cancer CTG-0860 tumor moderately expressing HER2; assay: Antitumor test (9), patient-derived non-small cell lung cancer CTG-0860 in nude mice; format: in vivo, nude mouse; details: 10 mg/kg intravenously on Day 0; HER2 score 2+; FIG. 11
Procedure: as §1

[9] = tested on: bile duct cancer CTG-0927 tumor highly expressing HER2; assay: Antitumor test (10), patient-derived bile duct cancer CTG-0927 in nude mice; format: in vivo, nude mouse; details: 10 mg/kg intravenously on Day 0; HER2 score 3+; FIG. 12
Procedure: as §1

[10] = tested on: esophageal cancer CTG-0137 tumor highly expressing HER2; assay: Antitumor test (11), patient-derived esophageal cancer CTG-0137 in nude mice; format: in vivo, nude mouse; details: 10 mg/kg intravenously on Day 0; HER2 score 3+; FIG. 13
Procedure: as §1

[11] = tested on: Human ovarian cancer line SK-OV-3 cells highly expressing HER2; assay: Antitumor test (12), SK-OV-3 solid tumor in nude mice; format: in vivo, nude mouse; details: 10 mg/kg intravenously on Day 0, FIG. 14
Procedure: as §2, §3
Human ovarian cancer line SK-OV-3 cells highly expressing HER2 purchased from ATCC were suspended in physiological saline, and 4×10^7 cells were subcutaneously transplanted to the right side of the body of each female nude mouse to prepare SK-OV-3 solid tumor. Thereafter, this solid tumor was maintained at several passages by transplantation to female nude mice and used in this test. […]

| Molecule | stability of the aminal structure; releases HO—CH2—C(═O)—(NH-DX) [1] | antitumor effect (tumor volume), NCI-N87 [2] | growth of the JIMT-1 tumor (tumor volume) [3] | growth of the Capan-1 tumor (tumor volume) [4] | growth of the breast cancer ST225 tumor (tumor volume) [5] | growth of the breast cancer ST910 tumor (tumor volume) [6] | growth of the colorectal cancer CTG-0401 tumor (tumor volume) [7] | growth of the non-small cell lung cancer CTG-0860 tumor (tumor volume) [8] | growth of the bile duct cancer CTG-0927 tumor (tumor volume) [9] | growth of the esophageal cancer CTG-0137 tumor (tumor volume) [10] | growth of the SK-OV-3 tumor (tumor volume) [11] |
| --- | --- | --- | --- | --- | --- | --- | --- | --- | --- | --- | --- |
| CC[C@@]1(O)C(=O)OCc2c1cc1n(c2=O)Cc2c-1nc1cc(F)c(C)c3c1c2[C@@H](NC(=O)COCN)CC3 [NH2—CH2—O—CH2—C(═O)—(NH-DX)] | undergoes a self-degradation |  |  |  |  |  |  |  |  |  |  |
| trastuzumab emtansine |  | tumor regression | did not inhibit the growth of the JIMT-1 tumor | did not inhibit the growth of the Capan-1 tumor | remarkably inhibited the growth of the tumor | did not inhibit the growth | did not inhibit the growth | did not inhibit the growth | inhibited the growth of the tumor | remarkably inhibited the growth of the tumor | remarkably inhibited the growth of the tumor |
